From PubChem BioAssay (NCI)
Values joined by “and” are separate entries in the source; they are usually repeats but may differ in a detail not shown here. Identical values can stand only once.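 Five concentrations, 48 hours, 96-well plates. The concentration for 50% growth inhibition is given as GI50. TGI: total growth inhibition.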

Key:
Experiment in all cases: NCI-60 cell line screen, 48 h
KM12 colon = test system: KM12 colon
TK-10 renal = test system: TK-10 renal
MALME-3M melanoma = test system: MALME-3M melanoma
PC-3 prostate = test system: PC-3 prostate
RXF 393 renal = test system: RXF 393 renal
HL-60(TB) leukemia = test system: HL-60(TB) leukemia
SN12C renal = test system: SN12C renal
786-0 renal = test system: 786-0 renal
EKVX NSCLC = test system: EKVX NSCLC
UACC-62 melanoma = test system: UACC-62 melanoma

Compound | GI50 (KM12 colon) | TGI (KM12 colon) | GI50 (TK-10 renal) | TGI (TK-10 renal) | GI50 (MALME-3M melanoma) | TGI (MALME-3M melanoma) | GI50 (PC-3 prostate) | TGI (PC-3 prostate) | GI50 (RXF 393 renal) [µM] | TGI (RXF 393 renal) | GI50 (HL-60(TB) leukemia) | TGI (HL-60(TB) leukemia) | GI50 (SN12C renal) | TGI (SN12C renal) | GI50 (786-0 renal) | TGI (786-0 renal) | GI50 (EKVX NSCLC) [µM] | TGI (EKVX NSCLC) [µM] | GI50 (UACC-62 melanoma) | TGI (UACC-62 melanoma)
COC(=O)c1cnc(=O)n(C2CC(O)C(CO)O2)c1 (stereo unspecified) | > 100 µM | > 100 µM | > 100 µM | > 100 µM | > 100 µM | > 100 µM | 0.811 µM | > 100 µM | > 100 | > 100 µM | > 100 µM | > 100 µM | > 100 µM | > 100 µM | > 100 µM | > 100 µM | > 100 | > 100 | > 100 µM | > 100 µM
CCOC(=O)c1cnc(SCc2ccc(Cl)c(Cl)c2)nc1N1CC1 | 3.13 µM | 12.5 µM | 3.87 µM | 15.2 µM | 3.33 µM | 14.8 µM | 2.74 µM | 15.2 µM | 4.04 | 16.2 µM | 1.72 µM | 9.13 µM | 4.37 µM | 21.2 µM | 3.24 µM | 14.1 µM | 3.8 | 18.6 | 4.23 µM | 19.5 µM
O=C(Nc1n[nH]c2nc(-c3ccco3)c(Br)cc12)C1CC1 | > 25 µM | > 25 µM | > 25 µM | > 25 µM | > 25 µM | > 25 µM | > 25 µM | > 25 µM | 4.89 | > 25 µM | > 25 µM | > 25 µM | > 25 µM | > 25 µM | > 25 µM | > 25 µM | > 25 | > 25 | > 25 µM | > 25 µM
COc1ccc(N(C)c2nc(C)nc3ccccc23)cc1 | < 0.01 µM | – | – | > 47.5 µM | – | 39.5 µM | < 0.01 µM | 36.8 µM | < 0.01 | > 100 µM | < 0.01 µM | < 0.01 µM | < 0.01 µM | > 100 µM | < 0.01 µM | 55.7 µM | < 0.01 | 40.8 | < 0.01 µM | > 49.6 µM
Cc1ccc(S(=O)(=O)N/N=C/C(Br)=C(/Br)C(=O)O)cc1 | – | 33.1 µM | – | 22.9 µM | – | 14.3 µM | – | 29.3 µM | – | 5.17 µM | – | 5.12 µM | – | 25.6 µM | – | 14.8 µM | – | 34 | – | 22.3 µM
N#C/C(=C\c1c(-c2ccccc2)[nH]c2ccccc12)C(=O)c1ccc(Cl)cc1 | 0.735 µM | 23.6 µM | 8.6 µM | 43.8 µM | 3.61 µM | 30.2 µM | 3.42 µM | > 70.3 µM | 19.5 | > 100 µM | 0.385 µM | 3.17 µM | 6.91 µM | > 78.7 µM | 5.53 µM | 23.5 µM | 5.51 | > 100 | 1.46 µM | 33.9 µM
O=C(CCCc1c[nH]c2ccccc12)NC1CC(=O)c2c(Br)sc(Br)c21 (stereo unspecified) | 23.5 µM | 71.2 µM | 26 µM | > 100 µM | 16.4 µM | 48 µM | 21 µM | 75.7 µM | 14.7 | 80.8 µM | 5.04 µM | 67.1 µM | 17.3 µM | 33 µM | 19.2 µM | 34.9 µM | 18.9 | 37.3 | 14.2 µM | 27.9 µM
C[C@@H](c1ccc2nccn2c1)n1nnc2ncc(-c3cnn(C)c3)nc21 | 43.3 µM | > 100 µM | > 100 µM | > 100 µM | > 100 µM | > 100 µM | > 100 µM | > 100 µM | > 100 | > 100 µM | > 100 µM | > 100 µM | > 100 µM | > 100 µM | > 100 µM | > 100 µM | > 100 | > 100 | > 100 µM | > 100 µM
COc1cc(CCc2cc(NC(=O)c3ccc(N4C[C@@H](C)N[C@@H](C)C4)cc3)n[nH]2)cc(OC)c1 | 0.0759 µM and 0.107 µM | > 10 µM and 11 µM | > 10 µM and 10.4 µM | > 10 µM and 23.6 µM | 8.58 µM and 5.25 µM | > 10 µM and 19.9 µM | > 10 µM and 6.92 µM | > 10 µM and 23.9 µM | – | 7.97 µM and 9.67 µM | 2.47 µM and 4.15 µM | > 10 µM and 14.9 µM | 6.39 µM and 3.31 µM | > 10 µM and 15.7 µM | > 10 µM and 6.16 µM | > 10 µM and 20.4 µM | > 10 | > 10 | > 10 µM and 6.82 µM | > 10 µM and 21.2 µM
Cc1ccc(-c2c(C#N)c(N)nc(N3CCOCC3)c2C#N)o1 | 46.6 µM | > 100 µM | 35.4 µM | > 100 µM | 43.4 µM | > 100 µM | 30.6 µM | > 100 µM | 40.7 | > 100 µM | 46.3 µM | > 100 µM | 41.6 µM | > 100 µM | 19.1 µM | 57.9 µM | 21.2 | > 100 | 39 µM | > 100 µM
CCCCCCCCCCCCCCCCCCNC(=O)[C@H]1CSC(c2ccc(OC)c(F)c2)N1 (stereo partly specified) | 2.34 µM | 7.9 µM | 28.3 µM | > 57.7 µM | > 26.2 µM | > 45.5 µM | 6.09 µM | 28.3 µM | 2.34 | 5.5 µM | 1.96 µM | 4.65 µM | 1.52 µM | 3.39 µM | 7.18 µM | > 46.2 µM | 3.93 | 17.2 | 1.72 µM | 3.82 µM
